According to patent US10533207B2, “Bioactivity testing structure for single cell tracking using gelling agents” (QuantaMatrix Inc., priority 2014, dated 2020):
In brackets after ≈: the same amount, converted by molar mass.

Experiments:
[1] = test system: ESBL negative E. coli (ATCC 35218); test: AST on the DAC system at various inoculum concentrations; format: cell-based; details: unit inferred
Description: (§1) The first reason is that large inoculum amounts of antibiotic degrading proteins derived from bacteria may destroy antibiotics and result in an increase in MIC value. The other reason is that larger inoculum amounts of […] bacteria may decrease the number of antibiotic molecules relative to single cells of bacteria and result in an increase in MIC. To verify the reasons for the absence of inoculum effect in the DAC system, ESBL negative E. coli (ATCC 35218), ESBL positive E. coli (ATCC 25922), and clinically obtained E. coli strains, which are well known as a bacterial strain secreting antibiotic-degrading proteins, were tested at inoculum concentrations of 5×10^7, 5×10^6, and 5×10^5 CFU/ml. These concentrations indicate the concentrations of the bacteria in agarose for the DAC system and in liquid for the MDT system.

[2] = test system: ESBL positive E. coli (ATCC 25922); test: as above; format: cell-based; details: unit inferred
Description: as §1

[3] = test system: clinically obtained E. coli strain #5; test: as above; format: cell-based; details: #5 strain, unit inferred
Description: as §1

[4] = test system: ESBL negative E. coli (ATCC 35218); test: AST on the MDT system (broth microdilution) at various inoculum concentrations; format: cell-based
Description: (§2) The MIC of cefepime against E. coli was determined according to the standard CLSI guideline except for the concentration of bacteria. 16 h after culture at 37° C., broth microdilution wells were examined.
as §1

[5] = test system: ESBL positive E. coli (ATCC 25922); test: as above; format: cell-based
Description: as §2, §1

[6] = test system: clinically obtained E. coli strain #5; test: as above; format: cell-based; details: #5 strain
Description: as §2, §1

[7] = test system: ESBL positive E. coli strains; test: Residual efficacy of antibiotic solution after overnight culture, re-tested by MDT; format: cell-based; details: Escherichia coli
Description: At each time point, the culture media were filtered to remove the cells and then added to different DST sets to measure the residual efficacies of the antibiotics. Both broth […] and DAC protocol were performed in the same manner as described above.
The present inventors hypothesized that the reason why the absence of inoculum effect in the DAC system may be because proteins released from bacteria are trapped by agarose and cannot degrade the antibiotic, unlike under broth culture conditions. […] These concentrations indicate the concentrations of the bacteria in […] for the DAC system and in liquid for the MDT system.
Thus, the final concentrations of the bacteria in the DAC and […] systems were the same. Cefepime was used in these tests. After culture overnight, the antibiotic solutions in the wells of the DAC and MDT systems was extracted and filtered to obtain the pure antibiotic. MDT using ESBL positive E. coli strains was conducted using the antibiotic.

[8] = test system: M. tuberculosis H37Rv; test: DST of MTB using the DAC system (MIC from time-lapse images); format: cell-based, Mycobacterium tuberculosis
[9] = test system: MDR-TB clinical strain; test: as above; format: cell-based, Mycobacterium tuberculosis
[10] = test system: XDR-TB clinical strain; test: as above; format: cell-based, Mycobacterium tuberculosis
[11] = test system: standard strain H37Rv; test: Inoculum effect test, DST on the DAC system; format: cell-based, Mycobacterium tuberculosis
[12] = test system: clinical strain 1088; test: Inoculum effect on clinical strains on the DAC system; format: cell-based, Mycobacterium tuberculosis
Description: (§3) Mycobacterium tuberculosis identified by ZN staining and grown from an L-J slope or MGIT tube and was subjected to DST. For the preparation of inoculation from the LJ culture, colonies up to 14 days were extracted from the grown culture. The colonies were shaken with glass beads to crush large lumps. To obtain a high density (˜5×10^9 CFU/ml), the suspension was centrifuged at 3000 g for 10 min and pellets were resuspended in sterile PBS. Subsequently, the suspension was added to liquid agarose, inoculated in a bacteria-agarose mixture within the range of 10^1 to 5×10^8 CFU/ml, and loaded in the main channel After solidification, 7H9 broth containing each antibiotic was applied to the chamber. All bacterial cells were imaged with an inverted optical microscope (IS71, Olympus).
(§4) Clinical strains express various phenotypes, particularly, in drug susceptibility. […] Rifampicin, isoniazid, streptomycin, and ethambutol were used as test drugs. For the 131 strains, the highest concentration was 1.3×10^9.

[13] = test system: clinical strain 131; test: as above; format: cell-based, Mycobacterium tuberculosis
Description: as §3, §4

[14] = test system: clinical strain CMS; test: as above; format: cell-based, Mycobacterium tuberculosis
Description: as §3, §4

[15] = test system: clinical strain CYD; test: as above; format: cell-based, Mycobacterium tuberculosis
Description: as §3, §4

[16] = test system: clinical strain KHS; test: as above; format: cell-based, Mycobacterium tuberculosis
Description: as §3, §4

[17] = test system: clinical strain MSH; test: as above; format: cell-based, Mycobacterium tuberculosis
Description: as §3, §4

[18] = inoculum 5*10^5 CFU/ml in agarose
[19] = inoculum 5*10^6 CFU/ml in agarose
[20] = inoculum 5*10^7 CFU/ml in agarose
[21] = inoculum 5*10^5 CFU/ml in liquid, unit not given
[22] = inoculum 5*10^6 CFU/ml in liquid, unit inferred
[23] = inoculum 5*10^7 CFU/ml in liquid, unit inferred
[24] = Mycobacterium tuberculosis, 120 h
[25] = inoculum 10^3/mL, DAC, unit inferred
[26] = inoculum 10^4/mL, DAC, unit inferred
[27] = inoculum 10^5/mL, DAC, unit inferred
[28] = inoculum 10^6/mL, MAC2, unit inferred
[29] = inoculum 10^7/mL, MAC2, unit inferred

**Q.** `CO/N=C(\C(=O)N[C@@H]1C(=O)N2C(C(=O)[O-])=C(C[N+]3(C)CCCC3)CS[C@H]12)c1csc(N)n1` [Cefepime] was tested. Which MIC (AST result, DAC) [1, 18] did it give?
**A.** 0.06 µg/mL (≈ 0.125 µM)

**Q.** And the MIC (AST result, DAC) [1, 19]?
**A.** 0.06 µg/mL (≈ 0.125 µM)

**Q.** And the MIC (AST result, DAC) [1, 20]?
**A.** 0.06 µg/mL (≈ 0.125 µM)

**Q.** What about the MIC (AST result, DAC) [2, 18] of the same molecule?
**A.** 0.03 µg/mL (≈ 0.0624 µM)

**Q.** And the MIC (AST result, DAC) [2, 19]?
**A.** 0.03 µg/mL (≈ 0.0624 µM)

**Q.** What about the MIC (AST result, DAC) [2, 20] of the same molecule?
**A.** 0.03 µg/mL (≈ 0.0624 µM)

**Q.** What about the MIC (AST result, DAC) [3, 18] of the same molecule?
**A.** < 16 µg/mL

**Q.** What about the MIC (AST result, DAC) [3, 19] of the same molecule?
**A.** < 16 µg/mL

**Q.** What about the MIC (AST result, DAC) [3, 20] of the same molecule?
**A.** < 16 µg/mL

**Q.** And the “MIC (AST result, MDT)” value [4, 21]?
**A.** All growth

**Q.** What about the MIC (AST result, MDT) [4, 22] of the same molecule?
**A.** 0.03 µg/mL (≈ 0.0624 µM)

**Q.** And the MIC (AST result, MDT) [4, 23]?
**A.** 0.03 µg/mL (≈ 0.0624 µM)

**Q.** And the “MIC (AST result, MDT)” value [5, 21]?
**A.** All growth

**Q.** And the MIC (AST result, MDT) [5, 22]?
**A.** 4 µg/mL (≈ 8.32 µM)

**Q.** What about the MIC (AST result, MDT) [5, 23] of the same molecule?
**A.** 0.03 µg/mL (≈ 0.0624 µM)

**Q.** And the “MIC (AST result, MDT)” value [6, 21]?
**A.** All growth

**Q.** What about the MIC (AST result, MDT) [6, 22] of the same molecule?
**A.** 64 µg/mL (≈ 133 µM)

**Q.** What about the MIC (AST result, MDT) [6, 23] of the same molecule?
**A.** 16 µg/mL (≈ 33.3 µM)

**Q.** And the MIC ([7]; antibiotic solution recovered from DAC wells after overnight culture with 5*10^5 CFU/ml ESBL positive E. coli)?
**A.** 0.06 µg/mL (≈ 0.125 µM)

**Q.** And the MIC ([7]; antibiotic solution recovered from DAC wells after overnight culture with 5*10^6 CFU/ml ESBL positive E. coli)?
**A.** 0.06 µg/mL (≈ 0.125 µM)

**Q.** And the MIC ([7]; antibiotic solution recovered from DAC wells after overnight culture with 5*10^7 CFU/ml ESBL positive E. coli)?
**A.** 0.06 µg/mL (≈ 0.125 µM)

**Q.** What about the MIC ([7]; antibiotic solution recovered from MDT wells after overnight culture with 5*10^5 CFU/ml ESBL positive E. coli) of the same molecule?
**A.** 0.03 µg/mL (≈ 0.0624 µM)

**Q.** And the MIC ([7]; antibiotic solution recovered from MDT wells after overnight culture with 5*10^6 CFU/ml ESBL positive E. coli)?
**A.** 0.125 µg/mL (≈ 0.26 µM)

**Q.** What about the MIC ([7]; antibiotic solution recovered from MDT wells after overnight culture with 5*10^7 CFU/ml ESBL positive E. coli) of the same molecule?
**A.** 0.25 µg/mL (≈ 0.52 µM)

**Q.** With `CC[C@@H](CO)NCCN[C@@H](CC)CO` [EMB, ethambutol] as the molecule, how does the “susceptibility determined from the MIC data and the critical concentrations” value (from here on “susceptibility determined”) [8] read?
**A.** S

**Q.** What about the MIC ([8]; Mycobacterium tuberculosis, 120 h, images over 5 days) of the same molecule?
**A.** 5 µg/mL (≈ 24.5 µM)

**Q.** What about the “susceptibility of the strain (in words)” value ([8]; from the MIC data) of the same molecule?
**A.** sensitive

**Q.** What about the “susceptibility determined” value ([9]; DAC system, MDR strain) of the same molecule?
**A.** R

**Q.** What about the MIC [9, 24] of the same molecule?
**A.** > 10 µg/mL

**Q.** What about the “susceptibility determined” value ([10]; DAC system, XDR strain) of the same molecule?
**A.** R

**Q.** And the MIC [10, 24]?
**A.** 10 µg/mL (≈ 48.9 µM)

**Q.** And the MIC (DAC) [11, 25]?
**A.** 2.5 µg/mL (≈ 12.2 µM)

**Q.** What about the MIC (DAC) [11, 26] of the same molecule?
**A.** 1.25 µg/mL (≈ 6.12 µM)

**Q.** And the MIC (DAC) [11, 27]?
**A.** 1.25 µg/mL (≈ 6.12 µM)

**Q.** And the MIC (DAC) [11, 28]?
**A.** 2.5 µg/mL (≈ 12.2 µM)

**Q.** And the MIC (DAC) [11, 29]?
**A.** 2.5 µg/mL (≈ 12.2 µM)

**Q.** And the MIC (DAC) [12, 25]?
**A.** 10 µg/mL (≈ 48.9 µM)

**Q.** What about the MIC (DAC) [12, 26] of the same molecule?
**A.** 10 µg/mL (≈ 48.9 µM)

**Q.** What about the MIC (DAC) [12, 27] of the same molecule?
**A.** 10 µg/mL (≈ 48.9 µM)

**Q.** And the MIC (DAC) [12, 28]?
**A.** ≥ 10 µg/mL

**Q.** And the MIC (DAC) [12, 29]?
**A.** ≥ 10 µg/mL

**Q.** And the MIC (DAC) [13, 25]?
**A.** > 10 µg/mL

**Q.** What about the MIC (DAC) [13, 26] of the same molecule?
**A.** > 10 µg/mL

**Q.** And the MIC (DAC) [13, 27]?
**A.** > 10 µg/mL

**Q.** And the MIC (DAC) [13, 28]?
**A.** > 10 µg/mL

**Q.** And the MIC (DAC) [13, 29]?
**A.** > 10 µg/mL

**Q.** What about the MIC (DAC) [14, 26] of the same molecule?
**A.** 1.25 µg/mL (≈ 6.12 µM)

**Q.** What about the MIC (DAC) [14, 27] of the same molecule?
**A.** 1.25 µg/mL (≈ 6.12 µM)

**Q.** What about the MIC (DAC) [14, 28] of the same molecule?
**A.** 2.5 µg/mL (≈ 12.2 µM)

**Q.** What about the MIC (DAC) [14, 29] of the same molecule?
**A.** 2.5 µg/mL (≈ 12.2 µM)

**Q.** And the MIC (DAC) [15, 26]?
**A.** 2.5 µg/mL (≈ 12.2 µM)

**Q.** And the MIC (DAC) [15, 27]?
**A.** 2.5 µg/mL (≈ 12.2 µM)

**Q.** What about the MIC (DAC) [15, 28] of the same molecule?
**A.** 2.5 µg/mL (≈ 12.2 µM)

**Q.** And the MIC (DAC) [15, 29]?
**A.** 5 µg/mL (≈ 24.5 µM)

**Q.** What about the MIC (DAC) [16, 26] of the same molecule?
**A.** 2.5 µg/mL (≈ 12.2 µM)

**Q.** And the MIC (DAC) [16, 27]?
**A.** 1.25 µg/mL (≈ 6.12 µM)

**Q.** And the MIC (DAC) [16, 28]?
**A.** 2.5 µg/mL (≈ 12.2 µM)

**Q.** What about the MIC (DAC) [16, 29] of the same molecule?
**A.** 2.5 µg/mL (≈ 12.2 µM)

**Q.** And the MIC (DAC) [17, 26]?
**A.** 1.25 µg/mL (≈ 6.12 µM)

**Q.** What about the MIC (DAC) [17, 27] of the same molecule?
**A.** 2.5 µg/mL (≈ 12.2 µM)

**Q.** What about the MIC (DAC) [17, 28] of the same molecule?
**A.** 2.5 µg/mL (≈ 12.2 µM)

**Q.** What about the MIC (DAC) [17, 29] of the same molecule?
**A.** 1.25 µg/mL (≈ 6.12 µM)
